Measurements as given in patent US7442801B2, “Pyrazole compound” (Sumitomo Chemical Company, Limited, priority 2003, dated 2008).

Test system: Tetranychus urticae
Experiment: Test Example 1: Controlling Rate against Tetranychus urticae on brush bean, spray
Type: in vivo
Details: 500 ppm, 30 ml sprayed on brush bean (Phaseolus vulgaris) with female adults
Method: Each of the present compounds (2) to (15), (17) to (33), (36) to (40) and the comparative compound described below was formulated according to Formulation Example 5, and each formulations was diluted with water so that the concentration of the present compound or the comparative compound came to 500 ppm.
About twenty female adults of Tetranychus urticae were set free on brush bean (Phaseolus vulgaris) in the primary leaf stage, which had been potted in a plastic cup for 7 days after the seeding. After 1 day, a 30 ml of the diluted formulation described-above was sprayed over the plant. On the 8th and 13th day after the application, the numbers of lived Tetranychus urticae on the leaf of brush bean plant were examined, and the Controlling Rates were calculated by the following scheme. Controlling Rate=100×{1−(a number of lived Tetranychus urticae in the treatment)/(a number of lived Tetranychus urticae in the non-treatment)}

With `Cc1nn(C)c(Oc2ccc(Oc3ccc(C(F)(F)F)cc3)cc2)c1C=NOCc1ccccc1` [comparative compound] the “Controlling Rate” value (8th day after the application) was “less than 30%” and the “Controlling Rate” value (13th day after the application) was “less than 30%”.
